Measured values: BindingDB's records for doi:10.1021/jm00038a004 (University of Arizona, 1994)

Experiment: Binding affinity opioid receptor

Structure (SMILES)	IC50
Cc1cc(O)cc(C)c1[C@H](C)[C@H](N)C(=O)N[C@H]1C(=O)NCC(=O)N[C@@H](Cc2ccccc2)C(=O)N[C@@H](C(=O)O)C(C)(C)SSC1(C)C [(4S,7S,13S)-13-[(2S,3S)-2-Amino-3-(4-hydroxy-2,6-dimethyl-phenyl)-butyrylamino]-7-benzyl-3,3,14,14-tetramethyl-6,9,12-trioxo-1,2-dithia-5,8,11-triaza-cyclotetradecane-4-carboxylic acid]	0.722 µM
Cc1cc(O)cc(C)c1[C@H](C)[C@H](N)C(=O)N[C@H](C)C(=O)N[C@@H](Cc1ccccc1)C(=O)N[C@@H](CC(=O)O)C(=O)N[C@H](C(=O)N[C@H](C(=O)NCC(N)=O)C(C)C)C(C)C [(S)-3-((S)-2-{(R)-2-[(2S,3S)-2-Amino-3-(4-hydroxy-2,6-dimethyl-phenyl)-butyrylamino]-propionylamino}-3-phenyl-propionylamino)-N-{(S)-1-[(S)-1-(carbamoylmethyl-carbamoyl)-2-methyl-propylcarbamoyl]-2-methyl-propyl}-succinamic acid]	17.1 µM
